Laboratory results published in patent US6670363B1, “Azole compounds as therapeutic agents for fungal infections” (Ranbaxy Laboratories Limited, priority 2000, dated 2003).
Values after ≈ are worked out from the molar mass of the structure shown.

Experiments:
Type in all cases: cell-based
Cryptococcus neoformans = assay: In vitro MIC, NCCLS M27A, Cryptococcus neoformans; parameters: MIC, C. neoformans I: unit not given beside the values; MIC, C. neoformans M 106: unit not given here; conditions: for MIC, C. neoformans I: C. neoformans strain I; for MIC, C. neoformans M 106: C. neoformans strain M 106
Candida = assay: In vitro MIC, NCCLS M27A, Candida species; parameters: MIC, Candida albicans 1.549 / MIC, Candida albicans Y-01-19 / MIC, C. krusei 766-1 / MIC, C. krusei Q. C / MIC, Candida tropicalis ATCC / MIC, C. glabrata 90030: unit not given beside the values; MIC, Candida albicans A 26 / MIC, C. parapsilosis Q. C.: unit not given here; conditions: for MIC, C. glabrata 90030: C. glabrata strain 90030; for MIC, C. krusei 766-1: C. krusei strain 766-1; for MIC, C. krusei Q. C: C. krusei strain Q. C; for MIC, C. parapsilosis Q. C.: C. parapsilosis strain Q. C.; for MIC, Candida albicans 1.549: Candida albicans strain 1.549; for MIC, Candida albicans A 26: Candida albicans strain A 26; for MIC, Candida albicans Y-01-19: Candida albicans strain Y-01-19
Histoplasma capsulatum = tested on: Histoplasma capsulatum
A. fumigatus s 1008 = assay: In vitro MIC, NCCLS M38P broth method (RPMI 1640/MOPS pH7), Aspergillus fumigatus; conditions: A. fumigatus strain 1008

SMILES: Cc1ccc(Cl)cc1N1CCN(c2ccc(-n3cnn([C@H](C)[C@@](O)(Cn4cncn4)c4ccc(F)cc4F)c3=O)cc2)CC1 [Compound 22, 2-{[1R2S/1S2R]-2-(2,4-Difluorophenyl)-2-hydroxy-1-methyl-3-(1H-1,2,4-triazol-1-yl)propyl}-4-{4-[4-(5-chloro-2-methylphenyl)-1-piperazinyl]phenyl}-3-(2H,4H)-1,2,4-triazolone]
- MIC, C. neoformans I (Cryptococcus neoformans): 0.12
- MIC, C. neoformans M 106 (Cryptococcus neoformans): 0.06
- MIC, C. glabrata 90030 (Candida): 1.00
- MIC, C. krusei 766-1 (Candida): 8.00
- MIC, C. krusei Q. C (Candida): 1.00
- MIC, C. parapsilosis Q. C. (Candida): 0.25
- MIC, Candida albicans 1.549 (Candida): 2.00
- MIC, Candida albicans A 26 (Candida): <0.03
- MIC, Candida albicans Y-01-19 (Candida): 1.00
- MIC, Candida tropicalis ATCC (Candida): <0.03
- MIC, H. capsulatum (Histoplasma capsulatum): > 16 µg/mL
- MIC, A. fumigatus 1008 (A. fumigatus s 1008): >16

SMILES: Cc1ccc(N2CCN(c3ccc(-n4cnn([C@H](C)[C@](O)(Cn5cncn5)c5ccc(F)cc5F)c4=O)cc3)CC2)cc1C [Compound 23, 2-{[1R2R/1S2S]-2-(2,4-Difluorophenyl)-2-hydroxy-1-methyl-3-(1H-1,2,4-triazol-1-yl)propyl}-4-{4-[4-(3,4-dimethylphenyl)-1-piperazinyl]phenyl}-3-(2H,4H)-1,2,4-triazolone]
- MIC, C. neoformans I (Cryptococcus neoformans): <0.03
- MIC, C. neoformans M 106 (Cryptococcus neoformans): <0.03
- MIC, C. glabrata 90030 (Candida): 0.50
- MIC, C. krusei 766-1 (Candida): 0.50
- MIC, C. krusei Q. C (Candida): 0.25
- MIC, C. parapsilosis Q. C. (Candida): <0.03
- MIC, Candida albicans 1.549 (Candida): 0.25
- MIC, Candida albicans A 26 (Candida): <0.03
- MIC, Candida albicans Y-01-19 (Candida): 0.50
- MIC, Candida tropicalis ATCC (Candida): <0.03
- MIC, H. capsulatum (Histoplasma capsulatum): 0.06 µg/mL (≈ 0.0999 µM)
- MIC, A. fumigatus 1008 (A. fumigatus s 1008): 1.00

SMILES: Cc1ccc(N2CCN(c3ccc(-n4cnn([C@H](C)[C@@](O)(Cn5cncn5)c5ccc(F)cc5F)c4=O)cc3)CC2)cc1C [Compound 24, 2-{[1R2S/1S2R]-2-(2,4-Difluorophenyl)-2-hydroxy-1-methyl-3-(1H-1,2,4-triazol-1-yl)propyl}-4-{4-[4-(3,4-dimethylphenyl)-1-piperazinyl]phenyl}-3-(2H,4H)-1,2,4-triazolone]
- MIC, C. neoformans I (Cryptococcus neoformans): 0.50
- MIC, C. neoformans M 106 (Cryptococcus neoformans): 1.00
- MIC, C. glabrata 90030 (Candida): 2.00
- MIC, C. krusei 766-1 (Candida): >16
- MIC, C. krusei Q. C (Candida): 16.0
- MIC, C. parapsilosis Q. C. (Candida): 0.25
- MIC, Candida albicans 1.549 (Candida): 2.00
- MIC, Candida albicans A 26 (Candida): <0.03
- MIC, Candida albicans Y-01-19 (Candida): 16.00
- MIC, Candida tropicalis ATCC (Candida): <0.03
- MIC, H. capsulatum (Histoplasma capsulatum): 0.25 µg/mL (≈ 0.416 µM)
- MIC, A. fumigatus 1008 (A. fumigatus s 1008): >16

SMILES: C[C@@H](n1ncn(-c2ccc(N3CCN(c4ccccc4F)CC3)cc2)c1=O)[C@](O)(Cn1cncn1)c1ccc(F)cc1F [Compound 25, 2-{[1R2R/1S2S]-2-(2,4-Difluorophenyl)-2-hydroxy-1-methyl-3-(1H-1,2,4-triazol-1-yl)propyl}-4-{4-[4-(2-fluorophenyl)-1-piperazinyl]phenyl}-3-(2H,4H)-1,2,4-triazolone]
- MIC, C. neoformans I (Cryptococcus neoformans): <0.03
- MIC, C. neoformans M 106 (Cryptococcus neoformans): <0.03
- MIC, C. glabrata 90030 (Candida): 0.12
- MIC, C. krusei 766-1 (Candida): 0.12
- MIC, C. krusei Q. C (Candida): 0.06
- MIC, C. parapsilosis Q. C. (Candida): <0.03
- MIC, Candida albicans 1.549 (Candida): 0.06
- MIC, Candida albicans A 26 (Candida): <0.03
- MIC, Candida albicans Y-01-19 (Candida): 0.12
- MIC, Candida tropicalis ATCC (Candida): <0.03
- MIC, H. capsulatum (Histoplasma capsulatum): 0.06 µg/mL (≈ 0.102 µM)
- MIC, A. fumigatus 1008 (A. fumigatus s 1008): 0.50

SMILES: Cc1nn([C@H](C)[C@@](O)(Cn2cncn2)c2ccc(F)cc2F)c(=O)n1-c1ccc(N2CCN(c3ccccc3F)CC2)cc1 [Compound 26, 2-{[1R2S/1S2R]-2-(2,4-Difluorophenyl)-2-hydroxy-1-methyl-3-(1H-1,2,4-triazol-1-yl)propyl}-4-{4-[4-(2-fluorophenyl)-1-piperazinyl]phenyl}-3-(2H,4H)-5-methyl-1,2,4-triazolone]
- MIC, C. neoformans I (Cryptococcus neoformans): <0.03
- MIC, C. neoformans M 106 (Cryptococcus neoformans): <0.03
- MIC, C. glabrata 90030 (Candida): 1.00
- MIC, C. krusei 766-1 (Candida): 2.00
- MIC, C. krusei Q. C (Candida): 0.50
- MIC, C. parapsilosis Q. C. (Candida): <0.03
- MIC, Candida albicans 1.549 (Candida): 0.25
- MIC, Candida albicans A 26 (Candida): <0.03
- MIC, Candida albicans Y-01-19 (Candida): 1.00
- MIC, Candida tropicalis ATCC (Candida): <0.03
- MIC, H. capsulatum (Histoplasma capsulatum): 0.12 µg/mL (≈ 0.198 µM)
- MIC, A. fumigatus 1008 (A. fumigatus s 1008): 8.00

SMILES: COc1ccc(F)cc1N1CCN(c2ccc(-n3c(C)nn([C@H](C)[C@](O)(Cn4cncn4)c4ccc(F)cc4F)c3=O)cc2)CC1 [Compound 27, 2-{[1R2R/1S2S]-2-(2,4-Difluorophenyl)-2-hydroxy-1-methyl-3-(1H-1,2,4-triazol-1-yl)propyl}-4-{4-[4-(2-methoxy-5-fluorophenyl)-1-piperazinyl]phenyl}-3-(2H,4H)-5-methyl-1,2,4-triazolone]
- MIC, C. neoformans I (Cryptococcus neoformans): <0.03
- MIC, C. neoformans M 106 (Cryptococcus neoformans): <0.03
- MIC, C. glabrata 90030 (Candida): 1.00
- MIC, C. krusei 766-1 (Candida): 2.00
- MIC, C. krusei Q. C (Candida): 0.50
- MIC, C. parapsilosis Q. C. (Candida): <0.03
- MIC, Candida albicans 1.549 (Candida): 1.00
- MIC, Candida albicans A 26 (Candida): <0.03
- MIC, Candida albicans Y-01-19 (Candida): 0.50
- MIC, Candida tropicalis ATCC (Candida): <0.03
- MIC, H. capsulatum (Histoplasma capsulatum): < 0.03 µg/mL
- MIC, A. fumigatus 1008 (A. fumigatus s 1008): >16

SMILES: COc1ccc(F)cc1N1CCN(c2ccc(-n3c(C)nn([C@H](C)[C@@](O)(Cn4cncn4)c4ccc(F)cc4F)c3=O)cc2)CC1 [Compound 28, 2-{[1R2S/1S2R]-2-(2,4-Difluorophenyl)-2-hydroxy-1-methyl-3-(1H-1,2,4-triazol-1-yl)propyl}-4-{4-[4-(2-methoxy-5-fluorophenyl)-1-piperazinyl]phenyl}-3-(2H,4H)-5-methyl-1,2,4-triazolone]
- MIC, C. neoformans I (Cryptococcus neoformans): 0.25
- MIC, C. neoformans M 106 (Cryptococcus neoformans): 1.00
- MIC, C. glabrata 90030 (Candida): 4.00
- MIC, C. krusei 766-1 (Candida): >16
- MIC, C. krusei Q. C (Candida): 16.0
- MIC, C. parapsilosis Q. C. (Candida): 0.25
- MIC, Candida albicans 1.549 (Candida): 8.00
- MIC, Candida albicans A 26 (Candida): <0.03
- MIC, Candida albicans Y-01-19 (Candida): 4.00
- MIC, Candida tropicalis ATCC (Candida): <0.03
- MIC, H. capsulatum (Histoplasma capsulatum): 2 µg/mL (≈ 3.15 µM)
- MIC, A. fumigatus 1008 (A. fumigatus s 1008): >16

SMILES: Cc1nn([C@H](C)[C@](O)(Cn2cncn2)c2ccc(F)cc2F)c(=O)n1-c1ccc(N2CCN(c3cc(Cl)cc(Cl)c3)CC2)cc1 [Compound 29, 2-{[1R2R/1S2S]-2-(2,4-Difluorophenyl)-2-hydroxy-1-methyl-3-(1H-1,2,4-triazol-1-yl)propyl}-4-{4-[4-(3,5-dichlorophenyl)-1-piperazinyl]phenyl}-3-(2H,4H)-5-methyl-1,2,4-triazolone]
- MIC, C. neoformans I (Cryptococcus neoformans): <0.03
- MIC, C. neoformans M 106 (Cryptococcus neoformans): <0.03
- MIC, C. glabrata 90030 (Candida): 0.50
- MIC, C. krusei 766-1 (Candida): 0.50
- MIC, C. krusei Q. C (Candida): 0.25
- MIC, C. parapsilosis Q. C. (Candida): <0.03
- MIC, Candida albicans 1.549 (Candida): 0.25
- MIC, Candida albicans A 26 (Candida): <0.03
- MIC, Candida albicans Y-01-19 (Candida): 0.25
- MIC, Candida tropicalis ATCC (Candida): <0.03
- MIC, H. capsulatum (Histoplasma capsulatum): 0.25 µg/mL (≈ 0.381 µM)
- MIC, A. fumigatus 1008 (A. fumigatus s 1008): 0.50

SMILES: Cc1nn([C@H](C)[C@@](O)(Cn2cncn2)c2ccc(F)cc2F)c(=O)n1-c1ccc(N2CCN(c3cc(Cl)cc(Cl)c3)CC2)cc1 [Compound 30, 2-{[1R2S/1S2R]-2-(2,4-Difluorophenyl)-2-hydroxy-1-methyl-3-(1H-1,2,4-triazol-1-yl)propyl}-4-{4-[4-(3,5-dichlorophenyl)-1-piperazinyl]phenyl}-3-(2H,4H)-5-methyl-1,2,4-triazolone]
- MIC, C. neoformans I (Cryptococcus neoformans): 0.12
- MIC, C. neoformans M 106 (Cryptococcus neoformans): 0.25
- MIC, C. glabrata 90030 (Candida): 1.00
- MIC, C. krusei 766-1 (Candida): 8.00
- MIC, C. krusei Q. C (Candida): 1.00
- MIC, C. parapsilosis Q. C. (Candida): 0.12
- MIC, Candida albicans 1.549 (Candida): 0.50
- MIC, Candida albicans A 26 (Candida): <0.03
- MIC, Candida albicans Y-01-19 (Candida): 1.00
- MIC, Candida tropicalis ATCC (Candida): <0.03
- MIC, H. capsulatum (Histoplasma capsulatum): 0.5 µg/mL (≈ 0.763 µM)
- MIC, A. fumigatus 1008 (A. fumigatus s 1008): >16

SMILES: CCc1ccccc1N1CCN(c2ccc(-n3c(C)nn([C@H](C)[C@](O)(Cn4cncn4)c4ccc(F)cc4F)c3=O)cc2)CC1 [Compound 31, 2-{[1R2R/1S2S]-2-(2,4-Difluorophenyl)-2-hydroxy-1-methyl-3-(1H-1,2,4-triazol-1-yl)propyl}-4-{4-[4-(2-ethylphenyl)-1-piperazinyl]phenyl}-3-(2H,4H)-5-methyl-1,2,4-triazolone]
- MIC, C. neoformans I (Cryptococcus neoformans): <0.03
- MIC, C. neoformans M 106 (Cryptococcus neoformans): <0.03
- MIC, C. glabrata 90030 (Candida): 0.50
- MIC, C. krusei 766-1 (Candida): 0.50
- MIC, C. krusei Q. C (Candida): 0.12
- MIC, C. parapsilosis Q. C. (Candida): <0.03
- MIC, Candida albicans 1.549 (Candida): >16
- MIC, Candida albicans A 26 (Candida): <0.03
- MIC, Candida albicans Y-01-19 (Candida): 0.12
- MIC, Candida tropicalis ATCC (Candida): <0.03
- MIC, H. capsulatum (Histoplasma capsulatum): 0.06 µg/mL (≈ 0.0976 µM)
- MIC, A. fumigatus 1008 (A. fumigatus s 1008): 1.00

SMILES: CCc1ccccc1N1CCN(c2ccc(-n3c(C)nn([C@H](C)[C@@](O)(Cn4cncn4)c4ccc(F)cc4F)c3=O)cc2)CC1 [Compound 32, 2-{[1R2S/1S2R]-2-(2,4-Difluorophenyl)-2-hydroxy-1-methyl-3-(1H-1,2,4-triazol-1-yl)propyl}-4-{4-[4-(2-ethylphenyl)-1-piperazinyl]phenyl}-3-(2H,4H)-5-methyl-1,2,4-triazolone]
- MIC, C. neoformans I (Cryptococcus neoformans): 0.50
- MIC, C. neoformans M 106 (Cryptococcus neoformans): 0.50
- MIC, C. glabrata 90030 (Candida): 2.00
- MIC, C. krusei 766-1 (Candida): >16
- MIC, C. krusei Q. C (Candida): 4.00
- MIC, C. parapsilosis Q. C. (Candida): 0.50
- MIC, Candida albicans 1.549 (Candida): >16
- MIC, Candida albicans A 26 (Candida): <0.03
- MIC, Candida albicans Y-01-19 (Candida): 4.00
- MIC, Candida tropicalis ATCC (Candida): <0.03
- MIC, H. capsulatum (Histoplasma capsulatum): 0.25 µg/mL (≈ 0.407 µM)
- MIC, A. fumigatus 1008 (A. fumigatus s 1008): >16
